Laboratory results: the supplement of paper PMC10307832

Columns and labels:
Experiment in all cases: relative viability (nuclei count vs DMSO), 5 days (fraction); higher = more cells survive
SW 900 = system: SW 900
In short: (§1)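 A single step with final 0.05% Triton X-100, 1% formaldehyde and 1 ug/ml Hoechst fixed the cells and stained nuclei 5 days after treatment. Lung cancer cell lines in 1536-well plates had been treated by pin tool the day after seeding with one drug alone or a fixed anchor-drug dose plus five library-drug doses (not always all listed) in √10 steps, and nuclei were counted on 4× images. Relative viability is the ratio of nuclei in treated wells to nuclei in vehicle wells, taken as the median of duplicate plates.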

NCI-H1648 = system: NCI-H1648
In short: as §1

NCI-H2342 = system: NCI-H2342
In short: as §1

NCI-H522 = system: NCI-H522
In short: as §1

Calu-6 = system: Calu-6
In short: as §1

NCI-H1563 = system: NCI-H1563
In short: as §1

NCI-H1299 = system: NCI-H1299
In short: as §1

A549 = system: A549
In short: as §1

NCI-H1703 = system: NCI-H1703
In short: as §1

EBC-1 = system: EBC-1
In short: as §1

IA-LM = system: IA-LM
In short: as §1

| SMILES | relative viability (Calu-6; first compound 0.08 µM) | relative viability (Calu-6; first compound 0.253 µM) | relative viability (Calu-6; first compound 0.8 µM) | relative viability (Calu-6; first compound 2.53 µM) | relative viability (Calu-6; first compound 8 µM) | relative viability (NCI-H1563; first compound 0.08 µM) | relative viability (NCI-H1563; first compound 0.253 µM) | relative viability (NCI-H1563; first compound 0.8 µM) | relative viability (NCI-H1563; first compound 2.53 µM) | relative viability (NCI-H1563; first compound 8 µM) | relative viability (NCI-H1299; first compound 0.08 µM) | relative viability (NCI-H1299; first compound 0.253 µM) | relative viability (NCI-H1299; first compound 0.8 µM) | relative viability (NCI-H1299; first compound 2.53 µM) | relative viability (NCI-H1299; first compound 8 µM) | relative viability (A549; first compound 0.08 µM) | relative viability (A549; first compound 0.253 µM) | relative viability (A549; first compound 0.8 µM) | relative viability (A549; first compound 2.53 µM) | relative viability (A549; first compound 8 µM) | further results |
| --- | --- | --- | --- | --- | --- | --- | --- | --- | --- | --- | --- | --- | --- | --- | --- | --- | --- | --- | --- | --- | --- |
| O=c1[nH]c2ccccc2n1C1CCN(CCCC(c2ccc(F)cc2)c2ccc(F)cc2)CC1 [Pimozide] + CC(=O)c1c(C)c2cnc(Nc3ccc(N4CCNCC4)cn3)nc2n(C2CCCC2)c1=O [Palbociclib] (partner 0.5 µM) | – | – | – | – | – | – | – | – | – | – | – | – | – | – | – | – | – | – | – | – | relative viability (SW 900; first compound 0.08 µM): 0.526; relative viability (SW 900; first compound 0.253 µM): 0.572; relative viability (SW 900; first compound 2.53 µM): 0.511; relative viability (SW 900; first compound 8 µM): 0.443; relative viability (NCI-H1648; first compound 0.08 µM): 0.301; relative viability (NCI-H1648; first compound 0.8 µM): 0.233; relative viability (NCI-H1648; first compound 2.53 µM): 0.282; relative viability (NCI-H1648; first compound 8 µM): 0.31; relative viability (NCI-H2342; first compound 0.08 µM): 0.573; relative viability (NCI-H2342; first compound 0.253 µM): 0.526; relative viability (NCI-H2342; first compound 0.8 µM): 0.436; relative viability (NCI-H2342; first compound 2.53 µM): 0.484; relative viability (NCI-H2342; first compound 8 µM): 0.507; relative viability (NCI-H522; first compound 0.08 µM): 0.766; relative viability (NCI-H522; first compound 0.253 µM): 0.785; relative viability (NCI-H522; first compound 0.8 µM): 0.94; relative viability (NCI-H522; first compound 2.53 µM): 0.891; relative viability (NCI-H522; first compound 8 µM): 0.901 |
| O=c1[nH]c2ccccc2n1C1CCN(CCCC(c2ccc(F)cc2)c2ccc(F)cc2)CC1 [Pimozide] + CS(=O)(=O)CCNCc1ccc(-c2ccc3ncnc(Nc4ccc(OCc5cccc(F)c5)c(Cl)c4)c3c2)o1 [Lapatinib] (partner 2 µM) | 1.08 | 1.07 | 1.02 | 1.02 | 0.933 | 0.955 | 0.829 | 0.933 | 0.756 | 0.533 | 0.977 | 0.972 | 0.91 | 0.937 | 0.875 | 0.912 | 1.01 | 0.976 | 0.882 | 0.802 | relative viability (NCI-H1703; first compound 0.08 µM): 1.02; relative viability (NCI-H1703; first compound 0.253 µM): 0.944; relative viability (NCI-H1703; first compound 0.8 µM): 0.763; relative viability (NCI-H1703; first compound 2.53 µM): 0.958; relative viability (NCI-H1703; first compound 8 µM): 0.865; relative viability (EBC-1; first compound 0.08 µM): 0.208; relative viability (EBC-1; first compound 0.253 µM): 0.213; relative viability (EBC-1; first compound 0.8 µM): 0.192; relative viability (EBC-1; first compound 2.53 µM): 0.223; relative viability (EBC-1; first compound 8 µM): 0.162; relative viability (IA-LM; first compound 0.08 µM): 0.888; relative viability (IA-LM; first compound 0.253 µM): 0.987; relative viability (IA-LM; first compound 0.8 µM): 0.64; relative viability (IA-LM; first compound 2.53 µM): 0.761; relative viability (IA-LM; first compound 8 µM): 0.893 |
| O=c1[nH]c2ccccc2n1C1CCN(CCCC(c2ccc(F)cc2)c2ccc(F)cc2)CC1 [Pimozide] + CS(=O)(=O)N1CCN(Cc2cc3nc(-c4cccc5[nH]ncc45)nc(N4CCOCC4)c3s2)CC1 [Pictilisib] (partner 1 µM) | 0.952 | 0.984 | 0.808 | 0.84 | 0.872 | 0.654 | 0.646 | 0.667 | 0.642 | 0.637 | 0.788 | 0.729 | 0.666 | 0.745 | 0.703 | 0.524 | 0.472 | 0.494 | 0.385 | 0.448 | relative viability (NCI-H1703; first compound 0.08 µM): 0.24; relative viability (NCI-H1703; first compound 0.253 µM): 0.273; relative viability (NCI-H1703; first compound 0.8 µM): 0.296; relative viability (NCI-H1703; first compound 2.53 µM): 0.264; relative viability (NCI-H1703; first compound 8 µM): 0.246; relative viability (EBC-1; first compound 0.08 µM): 0.393; relative viability (EBC-1; first compound 0.253 µM): 0.37; relative viability (EBC-1; first compound 0.8 µM): 0.364; relative viability (EBC-1; first compound 2.53 µM): 0.269; relative viability (EBC-1; first compound 8 µM): 0.27; relative viability (IA-LM; first compound 0.253 µM): 0.28; relative viability (IA-LM; first compound 0.8 µM): 0.288; relative viability (IA-LM; first compound 2.53 µM): 0.404; relative viability (IA-LM; first compound 8 µM): 0.438 |
| O=c1[nH]c2ccccc2n1C1CCN(CCCC(c2ccc(F)cc2)c2ccc(F)cc2)CC1 [Pimozide] + C[C@@H](Oc1cc(-c2cnn(C3CCNCC3)c2)cnc1N)c1c(Cl)ccc(F)c1Cl [Crizotinib] (partner 1 µM) | 0.781 | 0.814 | 0.793 | 0.679 | 0.624 | 0.824 | 0.844 | 0.803 | 0.775 | 0.645 | 0.955 | 0.838 | 0.934 | 0.811 | 0.885 | 0.756 | 0.668 | 0.643 | 0.658 | 0.644 | relative viability (NCI-H1703; first compound 0.08 µM): 0.489; relative viability (NCI-H1703; first compound 0.253 µM): 0.852; relative viability (NCI-H1703; first compound 0.8 µM): 0.666; relative viability (NCI-H1703; first compound 2.53 µM): 0.403; relative viability (NCI-H1703; first compound 8 µM): 0.545; relative viability (EBC-1; first compound 0.08 µM): 0.19; relative viability (EBC-1; first compound 0.253 µM): 0.232; relative viability (EBC-1; first compound 0.8 µM): 0.199; relative viability (EBC-1; first compound 2.53 µM): 0.175; relative viability (EBC-1; first compound 8 µM): 0.152; relative viability (IA-LM; first compound 0.08 µM): 0.975; relative viability (IA-LM; first compound 0.253 µM): 0.88; relative viability (IA-LM; first compound 0.8 µM): 0.988; relative viability (IA-LM; first compound 2.53 µM): 0.879; relative viability (IA-LM; first compound 8 µM): 0.859 |
| O=c1[nH]c2ccccc2n1C1CCN(CCCC(c2ccc(F)cc2)c2ccc(F)cc2)CC1 [Pimozide] + C[C@]1(O)C[C@@H](c2nc(-c3ccc4ccc(-c5ccccc5)nc4c3)c3c(N)nccn32)C1 [Linsitinib] (partner 1 µM) | 0.986 | 0.94 | 0.843 | 0.881 | 0.913 | 1.12 | 1.19 | 1.35 | 1.16 | 0.861 | 0.949 | 0.945 | 0.923 | 0.899 | 0.949 | 0.426 | 0.497 | 0.627 | 0.548 | 0.619 | relative viability (NCI-H1703; first compound 0.08 µM): 0.637; relative viability (NCI-H1703; first compound 0.253 µM): 0.544; relative viability (NCI-H1703; first compound 0.8 µM): 0.637; relative viability (NCI-H1703; first compound 2.53 µM): 0.514; relative viability (NCI-H1703; first compound 8 µM): 0.553; relative viability (EBC-1; first compound 0.08 µM): 0.867; relative viability (EBC-1; first compound 0.253 µM): 0.844; relative viability (EBC-1; first compound 0.8 µM): 0.766; relative viability (EBC-1; first compound 2.53 µM): 0.821; relative viability (EBC-1; first compound 8 µM): 0.892; relative viability (IA-LM; first compound 0.08 µM): 0.652; relative viability (IA-LM; first compound 0.253 µM): 0.566; relative viability (IA-LM; first compound 0.8 µM): 0.356; relative viability (IA-LM; first compound 2.53 µM): 0.456; relative viability (IA-LM; first compound 8 µM): 0.759 |
| O=c1[nH]c2ccccc2n1C1CCN(CCCC(c2ccc(F)cc2)c2ccc(F)cc2)CC1 [Pimozide] + Cc1nc(NC(=O)N2CCC[C@H]2C(N)=O)sc1-c1ccnc(C(C)(C)C(F)(F)F)c1 [Alpelisib] (partner 2 µM) | 0.938 | 0.999 | 0.92 | 0.844 | 0.883 | 0.919 | 0.814 | 0.819 | 0.798 | 0.739 | 1.04 | 0.981 | 1.04 | 1.07 | 1.12 | 0.727 | 0.762 | 0.678 | 0.707 | 0.617 | relative viability (NCI-H1703; first compound 0.08 µM): 0.323; relative viability (NCI-H1703; first compound 0.253 µM): 0.325; relative viability (NCI-H1703; first compound 0.8 µM): 0.385; relative viability (NCI-H1703; first compound 2.53 µM): 0.258; relative viability (NCI-H1703; first compound 8 µM): 0.274; relative viability (EBC-1; first compound 0.08 µM): 0.895; relative viability (EBC-1; first compound 0.253 µM): 0.724; relative viability (EBC-1; first compound 0.8 µM): 0.823; relative viability (EBC-1; first compound 2.53 µM): 0.796; relative viability (EBC-1; first compound 8 µM): 0.728; relative viability (IA-LM; first compound 0.08 µM): 0.695; relative viability (IA-LM; first compound 0.253 µM): 0.846; relative viability (IA-LM; first compound 0.8 µM): 0.666; relative viability (IA-LM; first compound 2.53 µM): 0.894; relative viability (IA-LM; first compound 8 µM): 0.853 |
